Test system: gene expression in D04 melanoma cells
Test: RNA-Seq differential expression analysis (DESeq2)
Type: cell-based, human
Details: up-regulated list
Protocol: Total RNA was isolated using the RNeasy mini Kit (QIAGEN) following the manufacturer's protocol. Quality check for extracted RNA was done using 2100 Bioanalyzer (Agilent Technologies, USA) or Tapestation System (Agilent Technologies, USA). […] For samples used for identification of MAPK-responsive lncRNAs, paired-end, 101-bp sequencing was performed by Centrillion Genomic Services (Centrillion Biosciences, USA) on an Illumina HiSeq 2000. For DE gene analysis of ASO-transfected D04 samples, paired-end, 2×150-bp sequencing was performed by Genewiz (USA) on a Illumina HiSeq.
Sequence reads were aligned to the human genome (hg19) using TopHat (Version 2.0.11).
Differential expression (DE) analysis was done using DESeq2. Differentially expressed genes were defined by more than 1.5-fold changes (log 2 >0.58 or <−0.58) in expression with FDR<0.05. GO term analysis was done using DAVID Functional Annotation Clustering analysis.
To examine the biomolecular changes upon TRASH-inhibition in melanoma, D04 cells were treated with TRASH-ASOs (SEQ ID NO:15) and Control-ASOs and RNA was extracted and used for RNA-Seq. […] These GO terms consisted of genes encoding growth factors, tyrosine kinases, G protein coupled receptor subunits, and collagen subunits. Scatter plot diagram showing differential gene expression after TRASH-ASO treatment compared to Control-ASO treatment. (cut-off for significance was adjusted p-value <0.05). Data was obtained from RNA-Seq of D04 melanoma cells, treatment period was three days. (FIG. 5c)

GACTGGAGATAATTAA (gapmer, pattern not given here) [SEQ ID NO: 15, GapmeR ASO targeting AC004540.4 (TRASH), exon region of both isoforms; used for in vitro experiments]
log2FoldChange BBC3 (ENSG00000105327): 0.619
log2FoldChange CD33 (ENSG00000105383): 0.929
log2FoldChange PLA2G4C (ENSG00000105499): 0.608
log2FoldChange HBP1 (ENSG00000105856): 0.6116
log2FoldChange ATP6V0A4 (ENSG00000105929): 0.8207
log2FoldChange CPED1 (ENSG00000106034): 0.7035
log2FoldChange SERPINE1 (ENSG00000106366): 0.6383
log2FoldChange ABI3 (ENSG00000108798): 0.9913
log2FoldChange SLC16A6 (ENSG00000108932): 0.91
log2FoldChange LPXN (ENSG00000110031): 0.7633
log2FoldChange ATG2A (ENSG00000110046): 0.5858
log2FoldChange CHKA (ENSG00000110721): 0.7402
log2FoldChange RASAL1 (ENSG00000111344): 0.896
log2FoldChange RBM24 (ENSG00000112183): 0.8237
log2FoldChange TREML2 (ENSG00000112195): 1.205
log2FoldChange WWC1 (ENSG00000113645): 0.6261
log2FoldChange STC2 (ENSG00000113739): 0.7339
log2FoldChange TNNC1 (ENSG00000114854): 1.043
log2FoldChange IL1A (ENSG00000115008): 0.7632
log2FoldChange ACTL8 (ENSG00000117148): 1.133
log2FoldChange TSPAN1 (ENSG00000117472): 0.7518
log2FoldChange IRF6 (ENSG00000117595): 0.7078
log2FoldChange DIEXF (ENSG00000117597): 0.6611
log2FoldChange MUC5B (ENSG00000117983): 0.599
log2FoldChange NR4A3 (ENSG00000119508): 1.046
log2FoldChange GPR75 (ENSG00000119737): 0.8604
log2FoldChange AVPI1 (ENSG00000119986): 0.7469
log2FoldChange DUSP1 (ENSG00000120129): 1.094
log2FoldChange FABP3 (ENSG00000121769): 0.9724
log2FoldChange CCRL2 (ENSG00000121797): 1.162
log2FoldChange PAEP (ENSG00000122133): 0.8405
log2FoldChange PLAU (ENSG00000122861): 1.118
log2FoldChange SLC25A16 (ENSG00000122912): 0.8143
log2FoldChange KCNK15 (ENSG00000124249): 1.203
log2FoldChange PAIP2B (ENSG00000124374): 1.015
log2FoldChange MT1G (ENSG00000125144): 1.136
log2FoldChange MT2A (ENSG00000125148): 0.8492
log2FoldChange BMP4 (ENSG00000125378): 0.657
log2FoldChange IL1B (ENSG00000125538): 1.059
log2FoldChange PSD4 (ENSG00000125637): 0.7899
log2FoldChange ARMCX1 (ENSG00000126947): 0.5964
log2FoldChange BEST3 (ENSG00000127325): 1.14
log2FoldChange KLF2 (ENSG00000127528): 0.7602
log2FoldChange AKAP9 (ENSG00000127914): 0.609
log2FoldChange KRT17 (ENSG00000128422): 1.116
log2FoldChange VGF (ENSG00000128564): 0.9691
log2FoldChange CSRP3 (ENSG00000129170): 1.122
log2FoldChange AJUBA (ENSG00000129474): 0.6241
log2FoldChange CDH15 (ENSG00000129910): 0.8921
log2FoldChange SYT5 (ENSG00000129990): 1.139
log2FoldChange UNC13A (ENSG00000130477): 1.071
log2FoldChange ULBP3 (ENSG00000131019): 0.6552
log2FoldChange ZBED3 (ENSG00000132846): 0.778
log2FoldChange BEX2 (ENSG00000133134): 0.7157
log2FoldChange BEX1 (ENSG00000133169): 0.6316
log2FoldChange BTG1 (ENSG00000133639): 0.69
log2FoldChange DYDC2 (ENSG00000133665): 0.987
log2FoldChange TRPM1 (ENSG00000134160): 1.155
log2FoldChange PTPN22 (ENSG00000134242): 1.051
log2FoldChange FST (ENSG00000134363): 0.8947
log2FoldChange SLC37A2 (ENSG00000134955): 0.7294
log2FoldChange NT5E (ENSG00000135318): 0.6889
log2FoldChange RDH5 (ENSG00000135437): 0.8676
log2FoldChange PKIB (ENSG00000135549): 0.7917
log2FoldChange DYSF (ENSG00000135636): 0.9396
log2FoldChange LCP1 (ENSG00000136167): 1.021
log2FoldChange IL6 (ENSG00000136244): 0.8209
log2FoldChange MYC (ENSG00000136997): 0.6121
log2FoldChange RNF144B (ENSG00000137393): 1.04
log2FoldChange ARHGAP29 (ENSG00000137962): 0.6178
log2FoldChange AOX1 (ENSG00000138356): 1.099
log2FoldChange FGF5 (ENSG00000138675): 0.9785
log2FoldChange ANXA3 (ENSG00000138772): 0.8166
log2FoldChange SLC46A3 (ENSG00000139508): 0.6816
log2FoldChange CYP11A1 (ENSG00000140459): 0.9698
log2FoldChange RHCG (ENSG00000140519): 1.166
log2FoldChange ITGAX (ENSG00000140678): 0.7501
log2FoldChange MAP1LC3B (ENSG00000140941): 0.7968
log2FoldChange NPC1 (ENSG00000141458): 0.6586
log2FoldChange SLC14A1 (ENSG00000141469): 1.217
log2FoldChange NECTIN4 (ENSG00000143217): 1.206
log2FoldChange ABL2 (ENSG00000143322): 0.8447
log2FoldChange RORC (ENSG00000143365): 0.8825
log2FoldChange TUFT1 (ENSG00000143367): 0.8984
log2FoldChange DYRK3 (ENSG00000143479): 0.5876
log2FoldChange DUSP10 (ENSG00000143507): 0.6264
log2FoldChange SLC20A1 (ENSG00000144136): 0.585
